Reference: patent US5220029A, “Synthetic proteolytic substrate” (Vitek Systems, Inc., priority 1990, dated 1993)
Where “and” joins values, the source holds several entries; their conditions need not be identical. Equal values may be shown once.

Assays:
trypsin [1] = experiment: Determination of kinetic constants for the trypsin catalyzed hydrolysis (continuous assay); type: biochemical; details: triplicate
Excerpt: (§1) The invention may be more thoroughly understood by reference to the included examples which describe the synthesis of amides of the type RCO-MBTH (Examples 1-15) and a continuous enzyme assay (Example 16). A disconintuous assay is illustrated in Example 17. Example 18 is a determination of the kinetic catalytic constant (kc) and binding constant (Km) for trypsin-catalyzed hydrolysis of an RCO-MBTH substrate by the continuous assay method.
Determination of the Kinetic Constants for the Trypsin Catalyzed Hydrolysis of N-(N-t-butoxycarbonyl)-L-Arginyl 3-methyl benzothiazolinone hydrazone (continuous assay)
In a one-cm. cuvette were mixed 3.0 mL of 0.02M tris buffer, pH 7.8, containing 0.02M 3-dimethylamino benzoic acid (DMAB) 0.1 mL of 0.065M potassium ferricyanide, and 0.1 mL of substrate (Boc-ARG-MBTH). The reaction was initiated by the addition of 0.1 mL of trypsin (2.33×10^-4 M in 0.1M pyrophosphate buffer, pH 8.3). Eight concentrations of substrate, from 9.98×10^-4 M to 7.8×10^-6 M, were assayed in triplicate. The increase in absorption at 590 nm was monitored continuously and the initial rates were determined. Under the conditions of the assay, a molar absorptivity of 57,000 was used to determine the concentration of the chromogen (MBTH-DMAB) produced by the hydrolysis of substrate. Table I contains the date used to determine the binding and kinetic constants (Km, kc).

trypsin [2] = experiment: Continuous assay for trypsin (saturation kinetics), color development by DMAB/ferricyanide at 590 nm; type: biochemical; details: 1 μg trypsin, 0.14M Tris pH 7.8, substrate 1.74×10^-3, 5.8×10^-4 and 3.9×10^-4 M in triplicate
Excerpt: as §1
Saturation kinetics for N-(N-benzyloxycarbonyl)glycyl-L-prolyl-L-arginyl 3-methyl-2-benzothiazolinone hydrazone with trypsin
A continuous assay for trypsin was performed, i.e., the oxidizing and coupling reagents for color development were included with the substrate in the reaction mixture so that color development may be monitored on a continuous basis with time. In this example the dye precursor is developed to a dye without destroying the enzymatic activity of the enzyme. The reaction was initiated by the addition of 0.1 mL of enzyme (10 μg/mL) to 0.9 mL of buffer solution containing substrate (Z-GLY-PRO-ARG-MBTH) and color developing reagents. […] The increases in absorbance at 590 nm were monitored continuously for 5 minutes and the initial rates determined. Using the molar absorptivity of 57,000 for the chromogen produced (MBTH-DMAB), the average rate of hydrolysis was calculated to be 4.43+0.1×10^-6 mol min^-1.

Compound | 1/V (trypsin [1]; 1/s 100 M^-1) | 1/V (trypsin [1]; 1/s 200 M^-1) | 1/V (trypsin [1]; 1/s 401 M^-1) | 1/V (trypsin [1]; 1/s 802 M^-1) | 1/V (trypsin [1]; 1/s 1603 M^-1) | 1/V (trypsin [1]; 1/s 2305 M^-1) | 1/V (trypsin [1]; 1/s 6413 M^-1) | 1/V (trypsin [1]; 1/s 12826 M^-1) | average rate of hydrolysis (trypsin [2])
Cn1c(=NNC(=O)[C@H](CCCNC(=N)N)NC(=O)OC(C)(C)C)sc2ccccc21 [Boc-ARG-MBTH, N-(N-t-butoxycarbonyl)-L-Arginyl 3-methyl benzothiazolinone hydrazone] | 0.000565 min/M and 0.000528 min/M and 0.000625 min/M | 0.000699 min/M and 0.000742 min/M | 0.000766 min/M and 0.00088 min/M and 0.000819 min/M | 0.001033 min/M and 0.00108 min/M and 0.001188 min/M | 0.001697 min/M and 0.001827 min/M | 0.002969 min/M and 0.003393 min/M | 0.005056 min/M and 0.00528 min/M | 0.009901 min/M and 0.009506 min/M | –
Cn1c(=NNC(=O)[C@H](CCCNC(=N)N)NC(=O)[C@@H]2CCCN2C(=O)CNC(=O)OCc2ccccc2)sc2ccccc21 [Z-GLY-PRO-ARG-MBTH, N-(N-benzyloxycarbonyl)glycyl-L-prolyl-L-arginyl 3-methyl-2-benzothiazolinone hydrazone] | – | – | – | – | – | – | – | – | 4.43+0.1×10^-6 mol min^-1
